Measurements: patent publication US20150306096A1, “8'-HYDROXY-DIHYDROERGOTAMINE COMPOUNDS AND COMPOSITIONS” (MAP Pharmaceuticals, Inc., priority 2012, published 2015)
Where two headings read alike, the source gives them in different places.

Tests used:
Assay in all cases: Radioligand competition binding and kinetics, CHO-K1 membranes
[1] = target: T1, human D2L receptor (Homo sapiens, UniProt P14416)
T1 construct: purchased Euroscreen; host or cells: CHO-K1
Procedure: (§1) For kinetics of radioligand competitive binding, serial dilutions were performed from master solution in 100% DMSO to obtain intermediate concentrations 200-fold higher than the concentrations to be tested. Each test sample was diluted 100-fold in the assay buffer and dispensed into the test plate.
D2L Radioligand Binding Assay
Assay buffer: 25 mM HEPES (pH 7.4), 5 mM MgCl2, 1 mM CaCl2, BSA protease free 0.5% Washing buffer: 25 mM HEPES (pH 7.4), 5 mM MgCl2, 1 mM CaCl2 Membrane: recombinant CHO-K1-D2L membranes thawed on ice and diluted in assay buffer (2 μg/well)
Ligand: Risperidone (Tocris Bioscience, 2865)
Radioligand: [^3H]-Spiperone (TRK818, diluted in assay buffer for a final concentration of 3 nM) Filter plate: GF/B Unifilter plate (Perkin Elmer, 6005177) presoaked in 0.5% PEI for 2 hours at RT.
(§2) Determination of the Kon constant. Radioligand association kinetics on each receptor were performed by adding in the wells of a 96 well plate 50 μL of radioligand and 50 μL of membrane extracts. The samples were incubated for the times reported in Table 3 below at a temperature optimized for each receptor and filtered over a filter plate. After washing the filters 5 times with 0.5 mL of ice-cold washing buffer, 50 μL of Microscint 20 (Packard) were added to the filters and the plates were incubated 15 min on an orbital shaker and then counted for 1 min/well. This allowed determination of the kobs for each radioligand. Association kinetics were performed at 5 different radioligand concentrations optimized for each receptor (see Table 3 below) to determine 5 different kobs. The different kobs were then plotted against the [radioligand] and the K. was calculated using the following equation: kon=(kobs−koff)[radioligand].
(§3) Determination of the Koff constant. Radioligand dissociation kinetics on each receptor were performed by adding in the wells of a 96 well plate 45 μL of radioligand and 45 μL of membrane extracts. The samples were incubated as reported in Table 4 below at a temperature optimized for each receptor until binding equilibrium was reached as determined by the association kinetics experiment. Then, 100 μL of cold competitor (reference ligand) were added at a 200 fold excess (final concentration) for the times reported in Table 4 at the optimized temperature. The samples were then filtered over a filter plate. After washing the filters 5 times with 0.5 mL of ice-cold washing buffer, 50 μL of Microscint 20 (Packard) were added to the filters and the plates were incubated 15 min on an orbital shaker and then counted for 1 min/well. This allowed determination of the koff for each radioligand.
(§4) Determination of IC50 and Ki constant for each test compound. Radioligand competition binding on each receptor were performed by adding in the wells of a 96 well plate […] of test compound at increasing concentration as reported in Table 5 below, 25 μL of radioligand and 25 μL of membrane extracts. The samples were incubated for 60 min (or 4 hours for a second experiment on 5-HT2B receptors) at a temperature optimized for each receptor and then filtered over a filter plate. After washing the filters 5 times with 0.5 mL of ice-cold washing buffer, 50 μL of Microscint 20 (Packard) were added to the filters and the plates were incubated 15 min on an orbital shaker and then counted for 1 min/well. The test compounds were tested in duplicate at the nanomolar concentrations reported below in Table 5.
Determination of kon and koff constants for each test compound. Each compound was first assessed in a pilot experiment to evaluate its effect on the kinetic binding of each receptor-radioligand pair. These pilot experiments were performed at on compound concentration and were composed of 10 time-points measurements in duplicate (2, 5, 10, 20, 30, 45, 60, 90, 120 and 150 minutes). […]

[2] = target: T2, human 5-HT1A receptor (Homo sapiens, UniProt P08908)
T2 construct: purchased Euroscreen; host or cells: CHO-K1
T2 sequence (P08908 1-422): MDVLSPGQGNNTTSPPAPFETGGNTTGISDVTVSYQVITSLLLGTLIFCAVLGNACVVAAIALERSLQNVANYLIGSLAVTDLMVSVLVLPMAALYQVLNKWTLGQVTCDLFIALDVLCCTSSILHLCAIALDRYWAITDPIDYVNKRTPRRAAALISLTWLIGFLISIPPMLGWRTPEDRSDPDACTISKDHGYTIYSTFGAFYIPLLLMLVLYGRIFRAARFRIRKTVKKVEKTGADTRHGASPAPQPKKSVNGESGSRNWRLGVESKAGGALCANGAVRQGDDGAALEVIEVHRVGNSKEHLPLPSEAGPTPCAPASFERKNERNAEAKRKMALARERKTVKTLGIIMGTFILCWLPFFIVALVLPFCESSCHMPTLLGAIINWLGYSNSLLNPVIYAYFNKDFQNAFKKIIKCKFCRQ
Procedure: as §1
as §2, with “Association kinetics were performed at 5 different radioligand concentrations optimized for each receptor (see Table 3 below) to determine 5 different kobs.” left out
Determination of the Koff constant. […] The samples were incubated as reported in Table 4 below at a temperature optimized for each receptor until binding equilibrium was reached as determined by the association kinetics experiment. […] After washing the filters 5 times with 0.5 mL of ice-cold washing buffer, 50 μL of Microscint 20 (Packard) were added to the filters and the plates were incubated 15 min on an orbital shaker and then counted for 1 min/well. […]
(§5) Determination of IC50 and Ki constant for each test compound. […] After washing the filters 5 times with 0.5 mL of ice-cold washing buffer, 50 μL of Microscint 20 (Packard) were added to the filters and the plates were incubated 15 min on an orbital shaker and then counted for 1 min/well. […]
(§6) Determination of kon and koff constants for each test compound. Each compound was first assessed in a pilot experiment to evaluate its effect on the kinetic binding of each receptor-radioligand pair. […]

[3] = target: T3, human 5-HT1D receptor (Homo sapiens, UniProt P28221)
T3 construct: purchased Euroscreen; host or cells: CHO-K1
T3 sequence (P28221 whole entry): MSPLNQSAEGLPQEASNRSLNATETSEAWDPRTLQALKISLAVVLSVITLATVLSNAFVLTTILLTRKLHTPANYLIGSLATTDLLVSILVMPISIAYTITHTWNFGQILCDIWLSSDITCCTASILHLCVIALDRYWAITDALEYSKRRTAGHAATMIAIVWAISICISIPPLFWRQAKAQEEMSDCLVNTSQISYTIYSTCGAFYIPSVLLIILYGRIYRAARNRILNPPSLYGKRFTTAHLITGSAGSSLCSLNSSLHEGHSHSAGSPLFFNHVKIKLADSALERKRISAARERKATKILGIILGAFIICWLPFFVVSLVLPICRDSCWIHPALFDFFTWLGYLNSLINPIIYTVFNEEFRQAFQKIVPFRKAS
Procedure: as §1
5-HT1D Radioligand Binding Assay
Assay buffer: 50 mM Tris (pH 7.4), 4 mM CaCl2, 0.1% ascorbic acid
Washing buffer: 50 mM Tris (pH 7.4)
Membrane: recombinant CHO-K1-5-HT1D membranes thawed on ice and diluted in assay buffer (10 μg/well)
(§7) Ligand: 5-HT (Sigma, H-9523)
Radioligand: [^3H]-CT (Perkin Elmer, TRK1038, diluted in assay buffer for a final concentration of 0.5 nM) Filter plate: GF/B Unifilter plate (Perkin Elmer, 6005177) presoaked in 0.5% PEI for 2 hours at RT.
as §2, §3, §4
(§8) Determination of kon and koff constants for each test compound. Each compound was first assessed in a pilot experiment to evaluate its effect on the kinetic binding of each receptor-radioligand pair. These pilot experiments were performed at on compound concentration and were composed of 10 time-points measurements in duplicate (2, 5, 10, 20, 30, 45, 60, 90, 120 and 150 minutes).

[4] = target: T4, human 5-HT2B receptor (Homo sapiens, UniProt P41595)
T4 construct: purchased Euroscreen; host or cells: CHO-K1
T4 sequence (P41595 whole entry): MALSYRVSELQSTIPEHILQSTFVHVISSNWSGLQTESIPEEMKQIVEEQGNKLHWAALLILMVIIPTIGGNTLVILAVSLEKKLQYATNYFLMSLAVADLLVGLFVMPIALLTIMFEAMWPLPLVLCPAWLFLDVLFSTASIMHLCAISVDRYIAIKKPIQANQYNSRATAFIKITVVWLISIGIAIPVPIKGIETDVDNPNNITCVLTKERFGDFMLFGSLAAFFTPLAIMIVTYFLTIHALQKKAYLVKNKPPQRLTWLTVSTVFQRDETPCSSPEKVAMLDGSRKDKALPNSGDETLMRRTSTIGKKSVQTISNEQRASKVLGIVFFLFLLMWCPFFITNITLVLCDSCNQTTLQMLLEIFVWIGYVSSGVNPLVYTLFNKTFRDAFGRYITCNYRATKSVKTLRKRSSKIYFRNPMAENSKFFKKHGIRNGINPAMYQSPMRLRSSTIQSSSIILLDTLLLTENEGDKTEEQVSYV
Procedure: as §1, §7, §2, §3, §5, §6

[5] = target: T5, human 5-HT1B receptor (Homo sapiens, UniProt P28222)
T5 construct: purchased Euroscreen; host or cells: CHO-K1
T5 sequence (P28222 whole entry): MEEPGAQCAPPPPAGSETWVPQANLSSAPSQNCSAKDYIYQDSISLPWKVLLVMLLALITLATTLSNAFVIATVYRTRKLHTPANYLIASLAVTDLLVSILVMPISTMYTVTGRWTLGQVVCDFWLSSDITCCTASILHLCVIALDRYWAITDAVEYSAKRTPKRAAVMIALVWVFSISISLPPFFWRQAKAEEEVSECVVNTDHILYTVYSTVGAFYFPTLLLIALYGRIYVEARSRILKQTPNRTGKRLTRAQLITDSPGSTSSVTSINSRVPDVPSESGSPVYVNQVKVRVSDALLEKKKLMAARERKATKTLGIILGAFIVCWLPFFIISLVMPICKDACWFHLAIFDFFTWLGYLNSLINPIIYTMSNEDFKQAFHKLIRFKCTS
Procedure: as §1
5-HT1B Radioligand Binding Assay
Assay buffer: 50 mM Tris (pH 7.4), 12.5 mM MgCl2, 0.1% ascorbic acid, 1 mM EDTA Washing buffer: 50 mM Tris (pH 7.4) Membrane: recombinant CHO-K1-5-HT1B membranes thawed on ice and diluted in assay buffer (7 μg/well)
Ligand: 5-CT (Tocris, 0458)
Radioligand: [^3H]-CT (Perkin Elmer, TRK1038, diluted in assay buffer for a final concentration of 0.6 nM) Filter plate: GF/B Unifilter plate (Perkin Elmer, 6005177) presoaked in 0.5% PEI for 2 hours at RT.
as §2, §3, §4, §8

T1 sequence (P14416 whole entry): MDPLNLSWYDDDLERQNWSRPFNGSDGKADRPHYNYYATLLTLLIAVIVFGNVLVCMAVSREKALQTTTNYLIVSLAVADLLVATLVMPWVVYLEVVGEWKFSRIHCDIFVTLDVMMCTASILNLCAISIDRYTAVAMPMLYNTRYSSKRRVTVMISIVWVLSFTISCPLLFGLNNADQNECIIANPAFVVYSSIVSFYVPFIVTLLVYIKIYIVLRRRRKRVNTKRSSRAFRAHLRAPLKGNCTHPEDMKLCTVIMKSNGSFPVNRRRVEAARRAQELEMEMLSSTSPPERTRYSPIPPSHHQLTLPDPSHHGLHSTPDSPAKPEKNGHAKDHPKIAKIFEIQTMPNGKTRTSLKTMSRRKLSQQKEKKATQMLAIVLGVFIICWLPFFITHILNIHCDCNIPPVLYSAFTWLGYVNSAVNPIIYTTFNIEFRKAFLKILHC

Compound	Avg Dissociation half-life ([1]; D2L)	Avg Koff ([1]; D2L)	IC50 ([1]; D2L, [3H]-Spiperone, read-out: IC50 from binding assay)	IC50 ([2]; 5-HT1A, [3H]-WAY100635, read-out: IC50 from binding assay)	Avg Dissociation half-life ([3]; 5-HT1D)	Avg Koff ([3]; 5-HT1D)	IC50 ([3]; 5-HT1D, [3H]-CT, read-out: IC50 from binding assay)	IC50 ([4]; 5-HT2B, [3H]-Mesulergine, read-out: IC50 from binding assay)	Avg Dissociation half-life ([5]; 5-HT1B)	Avg Koff ([5]; 5-HT1B)	IC50 ([5]; 5-HT1B, [3H]-CT, read-out: IC50 from binding assay)	IC50 [1]	koff ([1]; D2L)	IC50 [2]	IC50 [3]	koff ([3]; read-out: Avg Koff)	IC50 [4]	IC50 [5]	koff ([5]; read-out: Avg Koff)
CN1C[C@H](C(=O)N[C@]2(C)O[C@@]3(O)[C@@H]4CCC(O)N4C(=O)[C@H](Cc4ccccc4)N3C2=O)C[C@@H]2c3cccc4[nH]cc(c34)C[C@H]21 (stereo partly shown) [8′-OH DHE, 8′-Hydroxy-Dihydroergotamine]	0.15 h	0.00127 s⁻¹	297 nM	0.43 nM	1.10 h	0.000175 s⁻¹	0.8 nM	7.73 nM	1.94 h	9.83e-05 s⁻¹	0.77 nM								
CN1C[C@H](C(=O)N[C@]2(C)O[C@@]3(O)[C@@H]4CCCN4C(=O)[C@H](Cc4ccccc4)N3C2=O)C[C@@H]2c3cccc4[nH]cc(c34)C[C@H]21 [DHE, Dihydroergotamine]	0.24 h				1.28 h				1.38 h			231 nM	0.000792 s⁻¹	0.27 nM	0.65 nM	0.00015 s⁻¹	12.9 nM	0.55 nM	0.00014 s⁻¹
